Drawing on patent EP2396329B1, “COMPOUNDS FOR THE TREATMENT OF HEPATITIS C” (priority 2009, dated 2010), this text covers EC50 and IC50 for 13 compounds.

One assay deals with HCV replicon. Description: HCV replicon assay (FRET or luciferase readout). Particulars: Hepatitis C virus; HCV replicon cells; FRET or luciferase activity; read-out: EC50. In kind it is cell-based. The source says:
FRET Assay Preparation. To perform the HCV FRET screening assay, 96-well cell culture plates were used. The FRET peptide (Anaspec, Inc.) (Taliani et al., Anal. Biochem. 1996, 240, 60-67) contains a fluorescence donor, EDANS, near one end of the peptide and an acceptor, DABCYL, near the other end. The fluorescence of the peptide is quenched by […] resonance energy transfer (RET) between the donor and the acceptor, but as the NS3 protease cleaves the peptide the products are released from RET quenching and the fluorescence of the donor becomes apparent. The assay reagent was made as follows: 5X cell Luciferase cell culture lysis reagent from Promega (#E153A) diluted to 1X with dH2O, NaCl added to 150 mM final, the FRET peptide diluted to 20 µM final from a 2 mM stock.
To prepare plates, HCV replicon cells, with or without a Renilla luciferase reporter gene, were trypsinized and placed into each well of a 96-well plate with titrated test compounds added in columns 3 through 12; columns 1 and 2 contained a control compound (HCV protease inhibitor), and the bottom row contained cells without compound. The plates were then placed in a CO2 incubator at 37 °C.
Assays. Subsequent to addition of the test compounds described above (FRET Assay Preparation), at various times the plate was removed and Alamar blue solution (Trek Diagnostics, #00-100) was added per well as a measure of cellular toxicity. After reading in a Cytoflour 4000 instrument (PE Biosystems), plates were rinsed with PBS and then used for FRET assay by the addition of 30 ul of the FRET peptide assay reagent described above (FRET Assay Preparation) per well. The plate was then placed into the Cytoflour 4000 instrument which had been set to 340 excite/490 emission, automatic mode for 20 cycles and the plate read in a kinetic mode. Typically, the signal to noise using an endpoint analysis after the reads was at least three-fold. Alternatively, after Alamar blue reading, plates were rinsed with PBS, 50 ul of DMEM (high glucose) without phenol red was added and plates were then used for luciferase assay using the Promega Dual-Glo Luciferase Assay System.
Compound analysis was determined by quantification of the relative HCV replicon inhibition and the relative cytotoxicity values. To calculate cytoxicity values, the average Alamar Blue fluorescence signals from the control wells were set as 100% non-toxic. The individual signals in each of the compound test wells were then divided by the average control signal and multiplied by 100% to determine […]. To calculate the HCV replicon inhibition values, an average background value was obtained from the two wells containing the highest amount of HCV protease inhibitor at the end of the assay period. These numbers were similar to those obtained from naïve Huh-7 cells.
The background numbers were then subtracted from the average signal obtained from the control wells and this number was used as 100% activity. The individual signals in each of the compound test wells were then divided by the averaged control values after background subtraction and multiplied by 100% to determine percent activity. EC50 values for a protease inhibitor titration were calculated as the concentration which caused a 50% reduction in FRET or luciferase activity. The two numbers generated for the compound plate, percent cytoxicity and percent activity were used to determine compounds of interest for further analysis.
A general note: In antiviral work, replicon cells carry a viral genome segment that copies itself.

Another assay has as its target T1, HCV NS5B (Hepatitis C virus genotype 1b, UniProt Q9WMX2).
T1 construct: The protein was expressed with an 18 amino acid C-terminal truncation to enhance the solubility; made in house; host or cells: E. coli BL21(DE3)
Description: HCV NS5B RdRp enzyme assay (standard or modified). Type of assay: biochemical. Particulars: HCV NS5B RdRp enzyme, genotype 1b; read-out: IC50. As for the experimental part: HCV NS5B RdRp cloning, expression, and purification. The cDNA encoding the NS5B protein of HCV, genotype 1b, was cloned into the pET21a expression vector. The protein was expressed with an 18 amino acid C-terminal truncation to enhance the solubility. The E. coli competent cell line BL21(DE3) was used for expression of the protein. Cultures were grown at 37 °C for ~ 4 hours until the cultures reached an optical density of 2.0 at 600 nm. The cultures were cooled to 20 °C and induced with I mM IPTG. Fresh ampicillin was added to a final concentration of 50 µg/ml and the cells were grown overnight at 20 °C.
Cell pellets (3L) were lysed for purification to yield 15-24 mgs of purified NS5B. The lysis buffer consisted of 20 mM Tris-HCl, pH 7.4, 500 mM NaCl, 0.5% triton X-100, 1 mM DTT, 1mM EDTA, 20% glycerol, 0.5 mg/ml lysozyme, 10 mM MgCl2, 15 ug/ml deoxyribonuclease I, and Complete TM protease inhibitor tablets (Roche). After addition of the lysis buffer, frozen cell pellets were resuspended using a tissue homogenizer. To reduce the viscosity of the sample, aliquots of the lysate were sonicated on ice using a microtip attached to a Branson sonicator. The sonicated lysate was centrifuged at 100,000 x g for 1hr at 4 °C and filtered through a 0.2 µm filter unit (Corning).
The protein was purified using three sequential chromatography steps: Heparin sepharose CL-6B, polyU sepharose 4B, and Hitrap SP sepharose (Pharmacia). The chromatography buffers were identical to the lysis buffer but contained no lysozyme, deoxyribonuclease I, MgCl2 or protease inhibitor and the NaCl concentration of the buffer was adjusted according to the requirements for charging the protein onto the column. Each column was eluted with a NaCl gradient which varied in length from 5-50 column volumes depending on the column type. After the final chromatography step, the resulting purity of the enzyme is >90% based on SDS-PAGE analysis. The enzyme was aliquoted and stored at -80 °C.
Standard HCV NS5B RdRp enzyme assay. HCV RdRp genotype 1b assays were run in a final volume of 60 µl in 96 well plates (Costar 3912). The assay buffer is composed of 20 mM Hepes, pH 7.5, 2.5 mM KCI, 2.5 mM MgCl2, 1 mM DTT, 1.6 U RNAse inhibitor (Promega N2515), 0.1 mg/ml BSA (Promega R3961), and 2 % glycerol. All compounds were serially diluted (3-fold) in DMSO and diluted further in water such that the final concentration of DMSO in the assay was 2%. HCV RdRp genotype Ib enzyme was used at a final concentration of 28 nM. A polyA template was used at.6 nM, and a biotinylated oligo-dT12 primer was used at 180 nM final concentration. Template was obtained commercially (Amersham 27-4110). Biotinylated primer was prepared by Sigma Genosys. 3H-UTP was used at 0.6 µCi (0.29 µM total UTP). Reactions were initiated by the addition of enzyme, incubated at 30 °C for 60 min, and stopped by adding 25 µl of 50 mM EDTA containing SPA beads (4 µg/µl, Amersham RPNQ 0007). Plates were read on a Packard Top Count NXT after > 1hr incubation at room temperature.
Modified HCV NS5B RdRp enzyme assay. A modified enzyme assay was performed essentially as described for the standard enzyme assay except for the following: The biotinylated oligo dT12 primer was precaptured on streptavidin-coated SPA beads by mixing primer and beads in assay buffer and incubating at room temperature for one hour. Unbound primer was removed after centrifugation. The primer-bound beads were resuspended in 20 mM Hepes buffer, pH 7.5 and used in the assay at final concentrations of 20 nM primer and 0.67 µg/µl beads. Order of addition in the assay: enzyme (14 nM) was added to diluted compound followed by the addition of a mixture of template (0.2 nM), 3H-UTP (0.6 µCi, 0.29 µM), and primer-bound beads, to initiate the reaction; concentrations given are final. Reactions were allowed to proceed for 4 hours at 30° C.
IC50 values for compounds were determined using seven different [I]. […]

Molecules are shown by their SMILES.

T1 sequence (Q9WMX2 2420-2992): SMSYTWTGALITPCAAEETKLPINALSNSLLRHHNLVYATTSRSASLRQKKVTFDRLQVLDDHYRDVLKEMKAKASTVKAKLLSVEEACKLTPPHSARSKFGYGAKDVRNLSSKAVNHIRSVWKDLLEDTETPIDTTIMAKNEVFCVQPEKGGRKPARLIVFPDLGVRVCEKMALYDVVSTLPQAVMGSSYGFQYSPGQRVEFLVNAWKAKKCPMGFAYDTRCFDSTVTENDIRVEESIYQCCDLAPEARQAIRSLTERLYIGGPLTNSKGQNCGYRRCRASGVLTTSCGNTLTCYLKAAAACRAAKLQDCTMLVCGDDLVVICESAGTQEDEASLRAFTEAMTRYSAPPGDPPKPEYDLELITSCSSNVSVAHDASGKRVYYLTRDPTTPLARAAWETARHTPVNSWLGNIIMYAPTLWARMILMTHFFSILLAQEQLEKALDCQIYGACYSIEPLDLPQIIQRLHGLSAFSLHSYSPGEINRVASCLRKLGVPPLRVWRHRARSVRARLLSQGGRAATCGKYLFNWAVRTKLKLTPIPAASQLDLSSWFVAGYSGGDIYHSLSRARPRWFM

As to `COc1ccc2c(c1)C=C(c1c(C(=O)N3C[C@@H](C)O[C@@H](C)C3)c(C(C)C)nn1C)Cn1c-2c(C2CCCCC2)c2ccc(C(=O)NS(=O)(=O)C(C)C)cc21`, the EC50 (usually the midpoint of the concentration-response curve) in the assay on HCV replicon lay in the range of 1 to 500 nM. In addition, the half-inhibitory concentration (IC50) (commonly the concentration at which inhibition is half-maximal) at HCV NS5B is 1 to 500 nM.

As for `COc1ccc2c(c1)C=C(c1c(C(=O)N3CCN(C)CC3)c(C(C)C)nn1C)Cn1c-2c(C2CCCCC2)c2ccc(C(=O)NS(=O)(=O)C(C)C)cc21`, in the assay with HCV replicon, the EC50 was 1 to 500 nM. The IC50 at HCV NS5B was in the range of 1 to 500 nM.

As for `COc1ccc2c(c1)C=C(c1c(C(=O)N3C[C@@H](C)N(C)[C@@H](C)C3)c(C(C)C)nn1C)Cn1c-2c(C2CCCCC2)c2ccc(C(=O)NS(=O)(=O)C(C)C)cc21`, the 50% effective concentration (EC50) with HCV replicon fell in the range of 1 to 500 nM. Further, on HCV NS5B, the IC50 lay within 1 to 500 nM.

Consider `CCn1nc(C)c(C2=Cc3cc(OC)ccc3-c3c(C4CCCCC4)c4ccc(C(=O)NS(=O)(=O)C(C)C)cc4n3C2)c1C(=O)N1CCOCC1`, for which the EC50 in the assay on HCV replicon was 1 to 500 nM. The IC50 at HCV NS5B lay within 1 to 500 nM.

With `COc1ccc2c(c1)C=C(c1c(C(=O)N3C[C@@H](C)O[C@@H](C)C3)ncn1C(C)C)Cn1c-2c(C2CCCCC2)c2ccc(C(=O)NS(=O)(=O)C(C)C)cc21`, the EC50 with HCV replicon was in the range of 1 to 500 nM. Also, at HCV NS5B, the IC50 lay in the range of 1 to 500 nM.

In the case of `COc1ccc2c(c1)C=C(c1c(C(=O)N3CCOCC3)ncn1C(C)C)Cn1c-2c(C2CCCCC2)c2ccc(C(=O)NS(=O)(=O)C(C)C)cc21`, in the assay on HCV replicon, the 50% effective concentration (EC50) was 1 to 500 nM. The half-inhibitory concentration (IC50) at HCV NS5B is 1 to 500 nM.

As for `COc1ccc2c(c1)C=C(c1c(C(=O)N3C[C@@H](C)N(C)[C@@H](C)C3)ncn1C(C)C)Cn1c-2c(C2CCCCC2)c2ccc(C(=O)NS(=O)(=O)C(C)C)cc21`, the EC50 with HCV replicon is 1 to 500 nM. Further, the 50% inhibitory concentration (IC50) at HCV NS5B was 1 to 500 nM.

Consider `COc1ccc2c(c1)C=C(c1ncn(C(C)C)c1C(=O)N1C[C@@H](C)O[C@@H](C)C1)Cn1c-2c(C2CCCCC2)c2ccc(C(=O)NS(=O)(=O)N(C)C)cc21`, for which the EC50 with HCV replicon lay within 1 to 500 nM. Also, the concentration for half-maximal inhibition (IC50) on HCV NS5B lay within 1 to 500 nM.

As to `COc1ccc2c(c1)C=C(c1ncn(C(C)C)c1C(=O)N1CCOCC1)Cn1c-2c(C2CCCCC2)c2ccc(C(=O)NS(=O)(=O)N(C)C)cc21`, the EC50 with HCV replicon was 1 to 500 nM. The IC50 at HCV NS5B is 1 to 500 nM.

On to `COc1ccc2c(c1)C=C(c1c(C(=O)N3C[C@@H](C)N(C)[C@@H](C)C3)nnn1C(C)C)Cn1c-2c(C2CCCCC2)c2ccc(C(=O)NS(=O)(=O)N(C)C)cc21`, for which the half-maximal effective concentration (EC50) with HCV replicon lay in the range of 1 to 500 nM. For the same compound, the IC50 on HCV NS5B lay in the range of 1 to 500 nM.

Take `COc1ccc2c(c1)C=C(c1c(C(=O)N3C[C@@H](C)O[C@@H](C)C3)nnn1C(C)C)Cn1c-2c(C2CCCCC2)c2ccc(C(=O)NS(=O)(=O)N(C)C)cc21`: the concentration for a half-maximal effect (EC50) in the assay with HCV replicon was 1 to 500 nM. Besides, the half-maximal inhibitory concentration (IC50) on HCV NS5B lay within 1 to 500 nM.

Regarding `COc1ccc2c(c1)C=C(c1c(C(=O)N3CCOCC3)nnn1C(C)C)Cn1c-2c(C2CCCCC2)c2ccc(C(=O)NS(=O)(=O)N(C)C)cc21`, the EC50 in the assay with HCV replicon lay in the range of 1 to 500 nM. For the same compound, the half-maximal inhibitory concentration (IC50) at HCV NS5B was in the range of 1 to 500 nM.

As for `COc1ccc2c(c1)C=C(c1c(C(=O)N3CCN(C)CC(F)(F)C3)nnn1C(C)C)Cn1c-2c(C2CCCCC2)c2ccc(C(=O)NS(=O)(=O)N(C)C)cc21`, the EC50 in the assay on HCV replicon lay within 1 to 500 nM. Also, the IC50 on HCV NS5B was 1 to 500 nM.
